From the kinase profiling compilation of Christmann-Franck et al. (2016)
One block for each compound: values may come before it.

Key:
Test in all cases: KINOMEscan competition binding
Settings in all cases: compound 10.0 µM
TIE1 (human) = TIE1 (human) (UniProt P35590)
PDGFRB (human) = PDGFRB (human) (UniProt P09619)
KIT (human) = KIT (human) (UniProt P10721)
DDR1 (human) = DDR1 (human) (UniProt Q08345)
STK10 (human) = STK10 (human) (UniProt O94804)
[1] = system: KIT (human), P10721 [V559D]
[2] = system: ABL1 (human), P00519 [F317L]
TNK2 (human) = TNK2 (human) (UniProt Q07912)
SLK (human) = SLK (human) (UniProt Q9H2G2)
PTK2 (human) = PTK2 (human) (UniProt Q05397)
GAK (human) = GAK (human) (UniProt O14976)
FRK (human) = FRK (human) (UniProt P42685)
[3] = system: EGFR (human), P00533 [A750P; 747-749 del]
PTK2B (human) = PTK2B (human) (UniProt Q14289)
SIK1 (human) = SIK1 (human) (UniProt P57059)
PLK1 (human) = PLK1 (human) (UniProt P53350)
RPS6KA6 KD2 (human) = RPS6KA6 KD2 (human) (UniProt Q9UK32)
DAPK3 (human) = DAPK3 (human) (UniProt O43293)
[4] = system: EGFR (human), P00533 [747-751 del / S ins]
[5] = system: EGFR (human), P00533 [P753S; 747-752 del]
PLK3 (human) = PLK3 (human) (UniProt Q9H4B4)
TTK (human) = TTK (human) (UniProt P33981)
[6] = system: EGFR (human), P00533 [G719C; 746-750 del]
DCLK2 (human) = DCLK2 (human) (UniProt Q8N568)
CAMK2A (human) = CAMK2A (human) (UniProt Q9UQM7)
MYLK4 (human) = MYLK4 (human) (UniProt Q86YV6)
[7] = system: FLT3 (human), P36888 [ITD]
[8] = system: ABL1 (human), P00519 [F317I]
MAPK7 (human) = MAPK7 (human) (UniProt Q13164)
CAMK2B (human) = CAMK2B (human) (UniProt Q13554)
[9] = system: FLT3 (human), P36888 [N841I]
DCLK1 (human) = DCLK1 (human) (UniProt O15075)
CLK1 (human) = CLK1 (human) (UniProt P49759)
TNK1 (human) = TNK1 (human) (UniProt Q13470)
PHKG1 (human) = PHKG1 (human) (UniProt Q16816)
CAMK2D (human) = CAMK2D (human) (UniProt Q13557)
CLK4 (human) = CLK4 (human) (UniProt Q9HAZ1)
[10] = system: FLT3 (human), P36888 [D835Y]
CAMK2G (human) = CAMK2G (human) (UniProt Q13555)
[11] = system: FLT3 (human), P36888 [D835H]
DCLK3 (human) = DCLK3 (human) (UniProt Q9C098)
MKNK2 (human) = MKNK2 (human) (UniProt Q9HBH9)
PTK6 (human) = PTK6 (human) (UniProt Q13882)
ALK (human) = ALK (human) (UniProt Q9UM73)
ULK2 (human) = ULK2 (human) (UniProt Q8IYT8)
FLT3 (human) = FLT3 (human) (UniProt P36888)
DYRK1B (human) = DYRK1B (human) (UniProt Q9Y463)
[12] = system: FLT3 (human), P36888 [K663Q]

ABL1 (human), P00519 [F317L], sequence (P00519 whole entry F317L, looked up): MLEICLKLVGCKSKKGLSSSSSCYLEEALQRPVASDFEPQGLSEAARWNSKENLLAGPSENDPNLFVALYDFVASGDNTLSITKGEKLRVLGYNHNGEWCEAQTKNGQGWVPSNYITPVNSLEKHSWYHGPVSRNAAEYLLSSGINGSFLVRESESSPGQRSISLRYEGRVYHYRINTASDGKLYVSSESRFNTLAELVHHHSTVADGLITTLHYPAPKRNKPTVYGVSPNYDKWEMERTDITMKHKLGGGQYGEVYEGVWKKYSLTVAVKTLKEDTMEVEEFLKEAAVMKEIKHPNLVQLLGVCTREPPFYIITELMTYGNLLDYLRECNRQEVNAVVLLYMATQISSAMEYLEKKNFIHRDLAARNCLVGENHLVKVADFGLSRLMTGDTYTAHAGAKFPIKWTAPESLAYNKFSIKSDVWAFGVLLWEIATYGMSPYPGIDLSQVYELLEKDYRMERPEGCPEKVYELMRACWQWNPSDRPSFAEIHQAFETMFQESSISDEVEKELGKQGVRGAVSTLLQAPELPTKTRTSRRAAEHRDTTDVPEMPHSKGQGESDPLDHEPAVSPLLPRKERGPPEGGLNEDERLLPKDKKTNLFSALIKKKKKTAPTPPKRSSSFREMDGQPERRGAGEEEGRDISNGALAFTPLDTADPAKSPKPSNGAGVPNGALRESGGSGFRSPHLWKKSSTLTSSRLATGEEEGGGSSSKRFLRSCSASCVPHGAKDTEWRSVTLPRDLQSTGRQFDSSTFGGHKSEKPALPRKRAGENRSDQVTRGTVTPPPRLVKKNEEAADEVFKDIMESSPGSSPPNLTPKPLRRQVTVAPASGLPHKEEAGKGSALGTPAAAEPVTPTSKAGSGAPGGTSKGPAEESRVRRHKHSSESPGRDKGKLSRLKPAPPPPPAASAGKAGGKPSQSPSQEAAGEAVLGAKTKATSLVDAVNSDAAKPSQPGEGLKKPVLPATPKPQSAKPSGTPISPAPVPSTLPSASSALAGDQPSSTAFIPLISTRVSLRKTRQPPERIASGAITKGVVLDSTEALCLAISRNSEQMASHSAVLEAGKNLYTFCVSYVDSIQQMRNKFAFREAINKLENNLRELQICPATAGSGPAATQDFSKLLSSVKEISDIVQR
TTK (human), sequence (P33981 whole entry, looked up): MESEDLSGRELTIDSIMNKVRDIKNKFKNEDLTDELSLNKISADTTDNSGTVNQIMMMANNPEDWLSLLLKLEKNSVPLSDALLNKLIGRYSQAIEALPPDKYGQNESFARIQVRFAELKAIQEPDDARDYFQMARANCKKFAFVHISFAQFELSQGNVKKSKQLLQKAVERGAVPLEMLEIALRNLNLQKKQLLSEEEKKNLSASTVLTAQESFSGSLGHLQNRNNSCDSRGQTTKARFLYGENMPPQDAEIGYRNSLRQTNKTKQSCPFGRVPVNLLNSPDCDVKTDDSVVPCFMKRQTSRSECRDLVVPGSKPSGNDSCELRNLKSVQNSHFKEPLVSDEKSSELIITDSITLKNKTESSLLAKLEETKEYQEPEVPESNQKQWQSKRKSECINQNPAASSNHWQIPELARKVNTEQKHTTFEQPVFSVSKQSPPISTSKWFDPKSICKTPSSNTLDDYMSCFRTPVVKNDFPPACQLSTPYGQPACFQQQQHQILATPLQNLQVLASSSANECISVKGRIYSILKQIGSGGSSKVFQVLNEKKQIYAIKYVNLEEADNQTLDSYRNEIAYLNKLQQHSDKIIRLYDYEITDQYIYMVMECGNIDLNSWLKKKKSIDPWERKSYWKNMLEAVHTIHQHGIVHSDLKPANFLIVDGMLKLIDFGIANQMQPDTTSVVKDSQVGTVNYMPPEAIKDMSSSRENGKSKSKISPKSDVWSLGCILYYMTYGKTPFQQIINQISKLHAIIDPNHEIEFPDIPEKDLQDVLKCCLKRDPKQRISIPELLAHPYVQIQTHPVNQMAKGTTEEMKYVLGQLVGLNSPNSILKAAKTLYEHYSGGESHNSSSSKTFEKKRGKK
FRK (human), sequence (P42685 whole entry, looked up): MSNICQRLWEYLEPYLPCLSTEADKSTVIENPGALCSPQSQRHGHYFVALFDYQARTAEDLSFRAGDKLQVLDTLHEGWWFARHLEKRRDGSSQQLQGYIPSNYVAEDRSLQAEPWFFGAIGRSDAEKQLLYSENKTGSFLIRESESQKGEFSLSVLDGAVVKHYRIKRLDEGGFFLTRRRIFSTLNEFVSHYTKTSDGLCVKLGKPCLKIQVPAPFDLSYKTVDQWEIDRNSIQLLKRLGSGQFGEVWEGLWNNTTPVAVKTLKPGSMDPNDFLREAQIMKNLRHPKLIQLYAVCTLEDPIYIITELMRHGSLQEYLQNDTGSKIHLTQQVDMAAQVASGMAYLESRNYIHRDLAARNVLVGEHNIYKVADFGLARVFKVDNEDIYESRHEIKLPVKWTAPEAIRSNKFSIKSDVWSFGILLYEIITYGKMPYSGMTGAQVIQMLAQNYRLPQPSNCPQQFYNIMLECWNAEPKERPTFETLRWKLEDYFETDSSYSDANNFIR
GAK (human), sequence (O14976 whole entry, looked up): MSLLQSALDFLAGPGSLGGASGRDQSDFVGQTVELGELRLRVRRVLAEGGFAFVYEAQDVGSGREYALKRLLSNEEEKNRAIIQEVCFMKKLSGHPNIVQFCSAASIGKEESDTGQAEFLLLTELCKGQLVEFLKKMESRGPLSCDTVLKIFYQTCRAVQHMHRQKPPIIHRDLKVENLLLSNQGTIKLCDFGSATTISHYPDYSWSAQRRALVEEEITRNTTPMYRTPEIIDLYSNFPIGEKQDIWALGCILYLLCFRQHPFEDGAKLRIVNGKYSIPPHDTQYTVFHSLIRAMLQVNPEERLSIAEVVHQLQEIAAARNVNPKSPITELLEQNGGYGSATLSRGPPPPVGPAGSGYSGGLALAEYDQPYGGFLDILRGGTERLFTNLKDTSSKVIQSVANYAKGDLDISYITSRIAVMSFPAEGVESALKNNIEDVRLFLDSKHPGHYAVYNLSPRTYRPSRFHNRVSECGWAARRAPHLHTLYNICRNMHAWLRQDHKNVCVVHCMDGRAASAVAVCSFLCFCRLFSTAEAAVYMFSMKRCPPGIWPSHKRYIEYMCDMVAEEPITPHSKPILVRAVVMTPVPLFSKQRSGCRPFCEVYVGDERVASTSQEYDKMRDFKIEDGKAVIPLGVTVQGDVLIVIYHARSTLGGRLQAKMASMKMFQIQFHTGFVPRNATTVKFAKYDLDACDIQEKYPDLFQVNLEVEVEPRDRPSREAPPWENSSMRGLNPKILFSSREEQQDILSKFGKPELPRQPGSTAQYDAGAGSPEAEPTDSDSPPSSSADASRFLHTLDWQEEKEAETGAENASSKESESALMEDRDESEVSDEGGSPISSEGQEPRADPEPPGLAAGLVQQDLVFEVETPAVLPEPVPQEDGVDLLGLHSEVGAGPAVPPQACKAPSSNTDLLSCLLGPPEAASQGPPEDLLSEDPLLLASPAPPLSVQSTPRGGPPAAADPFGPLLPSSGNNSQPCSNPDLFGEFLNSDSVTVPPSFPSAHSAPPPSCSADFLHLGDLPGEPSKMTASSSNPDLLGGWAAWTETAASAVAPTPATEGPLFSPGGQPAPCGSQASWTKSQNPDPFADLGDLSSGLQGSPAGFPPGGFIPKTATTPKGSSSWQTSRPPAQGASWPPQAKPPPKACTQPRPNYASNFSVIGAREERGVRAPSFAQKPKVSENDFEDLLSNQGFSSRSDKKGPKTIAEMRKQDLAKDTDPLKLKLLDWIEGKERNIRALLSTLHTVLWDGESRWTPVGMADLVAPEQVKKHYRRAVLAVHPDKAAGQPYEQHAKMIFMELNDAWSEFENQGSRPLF
STK10 (human), sequence (O94804 whole entry, looked up): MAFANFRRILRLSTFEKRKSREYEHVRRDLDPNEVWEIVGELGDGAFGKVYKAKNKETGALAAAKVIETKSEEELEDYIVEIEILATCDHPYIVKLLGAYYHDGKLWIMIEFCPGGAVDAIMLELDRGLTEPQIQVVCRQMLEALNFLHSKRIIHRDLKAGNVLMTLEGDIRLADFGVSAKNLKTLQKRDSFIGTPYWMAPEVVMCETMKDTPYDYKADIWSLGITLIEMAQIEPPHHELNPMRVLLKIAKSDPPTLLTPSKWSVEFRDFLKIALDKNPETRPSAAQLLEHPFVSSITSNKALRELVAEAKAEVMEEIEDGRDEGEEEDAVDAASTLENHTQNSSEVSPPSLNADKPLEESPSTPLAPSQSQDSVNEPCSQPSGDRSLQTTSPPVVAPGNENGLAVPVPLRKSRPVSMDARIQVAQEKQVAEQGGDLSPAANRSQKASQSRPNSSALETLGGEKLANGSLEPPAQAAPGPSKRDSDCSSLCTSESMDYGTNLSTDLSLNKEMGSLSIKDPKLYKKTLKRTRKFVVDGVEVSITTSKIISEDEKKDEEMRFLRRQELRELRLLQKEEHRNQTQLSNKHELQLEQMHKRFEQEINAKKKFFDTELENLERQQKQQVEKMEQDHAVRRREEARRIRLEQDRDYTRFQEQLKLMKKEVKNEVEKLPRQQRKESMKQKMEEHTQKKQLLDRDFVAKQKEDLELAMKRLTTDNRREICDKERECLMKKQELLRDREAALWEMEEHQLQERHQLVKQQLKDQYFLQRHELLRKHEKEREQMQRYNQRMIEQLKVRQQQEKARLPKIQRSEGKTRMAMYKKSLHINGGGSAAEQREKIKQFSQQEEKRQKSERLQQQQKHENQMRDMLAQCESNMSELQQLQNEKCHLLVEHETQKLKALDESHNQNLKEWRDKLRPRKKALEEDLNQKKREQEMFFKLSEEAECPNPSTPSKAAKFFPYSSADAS
ABL1 (human), P00519 [F317I], sequence (P00519 whole entry F317I, looked up): as the sequence (P00519 whole entry F317L, looked up) above, with L317I counted along it

kinase still bound, per cent of control (TIE1 (human)): 25%
kinase still bound, per cent of control (PDGFRB (human)): 33%
kinase still bound, per cent of control (KIT (human)): 25%
kinase still bound, per cent of control (DDR1 (human)): 34%
kinase still bound, per cent of control (STK10 (human)): 27%
kinase still bound, per cent of control [1]: 29%
SMILES: NS(=O)(=O)c1ccc(-c2ccc(/C=C3/C(=O)NN(c4ccccc4)C3=O)o2)cc1

kinase still bound, per cent of control [2]: 29%
kinase still bound, per cent of control (TNK2 (human)): 11%
kinase still bound, per cent of control (SLK (human)): 7.2%
kinase still bound, per cent of control (PTK2 (human)): 7.1%
kinase still bound, per cent of control (GAK (human)): 1.2%
kinase still bound, per cent of control (FRK (human)): 16%
kinase still bound, per cent of control [3]: 33%
kinase still bound, per cent of control (PTK2B (human)): 23%
kinase still bound, per cent of control (SIK1 (human)): 27%
kinase still bound, per cent of control (PLK1 (human)): 0%
kinase still bound, per cent of control (RPS6KA6 KD2 (human)): 12%
kinase still bound, per cent of control (DAPK3 (human)): 28%
kinase still bound, per cent of control [4]: 32%
kinase still bound, per cent of control (STK10 (human)): 19%
kinase still bound, per cent of control [5]: 32%
kinase still bound, per cent of control (PLK3 (human)): 26%
kinase still bound, per cent of control (TTK (human)): 12%
kinase still bound, per cent of control [6]: 30%
SMILES: COc1cc(N2CCC(N3CCN(C)CC3)CC2)ccc1Nc1ncc2c(n1)N(C1CCCC1)C(C)CC(=O)N2 (centres undefined)

kinase still bound, per cent of control (DCLK2 (human)): 17%
kinase still bound, per cent of control [2]: 25%
kinase still bound, per cent of control (TNK2 (human)): 8.4%
kinase still bound, per cent of control (CAMK2A (human)): 5.4%
kinase still bound, per cent of control (MYLK4 (human)): 5.8%
kinase still bound, per cent of control [7]: 6.5%
kinase still bound, per cent of control [8]: 15%
kinase still bound, per cent of control (MAPK7 (human)): 30%
kinase still bound, per cent of control (CAMK2B (human)): 21%
kinase still bound, per cent of control (GAK (human)): 2%
kinase still bound, per cent of control [9]: 0.35%
kinase still bound, per cent of control (DCLK1 (human)): 5.4%
kinase still bound, per cent of control (FRK (human)): 26%
kinase still bound, per cent of control (CLK1 (human)): 27%
kinase still bound, per cent of control (TNK1 (human)): 10%
kinase still bound, per cent of control (PHKG1 (human)): 9.2%
kinase still bound, per cent of control (CAMK2D (human)): 7.7%
kinase still bound, per cent of control (CLK4 (human)): 20%
kinase still bound, per cent of control [10]: 2%
kinase still bound, per cent of control (CAMK2G (human)): 25%
kinase still bound, per cent of control [11]: 18%
kinase still bound, per cent of control (DCLK3 (human)): 11%
kinase still bound, per cent of control (MKNK2 (human)): 0.8%
kinase still bound, per cent of control (PTK6 (human)): 13%
kinase still bound, per cent of control (ALK (human)): 30%
kinase still bound, per cent of control (ULK2 (human)): 27%
kinase still bound, per cent of control (FLT3 (human)): 13%
kinase still bound, per cent of control (TTK (human)): 1%
kinase still bound, per cent of control (DYRK1B (human)): 12%
kinase still bound, per cent of control [12]: 13%
SMILES: COc1cc(N2CCN(C)CC2)ccc1Nc1ncc2c(n1)N(C(C)C)c1ccccc1C(=O)N2
